Test results reported in patent publication US20060193881A1, “Method and compositions for attracting mosquitoes employing (R)-(-) isomers of 1-alken-3-ols” (Bedoukian Research, Inc., priority 2005, published 2006).

How the values were obtained:
Assay type in all cases: in vivo
mosquitoes [1] = assay: John W. Hock fan-driven CO2 trap field test, small amount (R) vs large amount racemic, Danbury Conn.; details: 14 days; for average mosquitoes caught: CO2 150 ml/min
Procedure: A test similar to example 5 was conducted in Danbury Conn. using fan driven-traps manufactured by John W. Hock Company in Gainesville Fla. using 150 ml/min CO2. To compare the attractiveness of a large amount of racemic 1-octen-3-ol to a small amount of (R)-(-)-1-octen-3-ol, one lure contained 50 mg of (R)-(-)-1-octen-3-ol diluted in 1.5 ml diethyl phthalate, releasing 1.5 mg/day or less was evaluated against a lure containing 1660 mg of racemic 1-octen-3-ol (830 mg of each enantiomer) diluted in 1.5 ml of diethyl phthalate, and releasing approximately 40 mg of 1-octen-3-ol/day. After rotation between the two traps over 14 days, the lure with the 1660 mg of racemic octenol caught an average of 9.4 mosquitoes, while the lure containing 50 mg of (R)-(-)-1-octen-3-ol caught an average of 11.8 mosquitoes, representing an increase of 26%.

mosquitoes [2] = assay: Mosquito Magnet Pro trap field test of 1-decen-3-ol enantiomers, Florida; details: 1 gram in fibrous lure; for total mosquitoes caught: lures rotated between traps over nine days
Procedure: The tests were conducted in Florida using Mosquito Magnet Pro mosquito traps manufactured by American Biophysics, rotating the lures between traps over a period of nine days, using 1 gram of each test material in a fibrous lure of the type normally used in the traps.

mosquitoes [3] = assay: Mosquito Magnet Liberty trap field test with porous frit, Danbury, Conn.; details: 1 gram on porous frit, 20-30 mg/day release
Procedure: Tests were conducted with the Mosquito Magnet Liberty model traps manufactured by American Biophysics Corp. Traps were spaced 65-70 feet apart at the edge of a wetland in Danbury, Conn., at least 25 feet from any buildings. 1 gram of test chemical was added to a clean porous frit of the type normally used in the trap, releasing approximately 20-30 mg/day. In the first test, racemic 1-octen-3-ol and (R)-(-)-1-octen-3-ol were rotated among four traps over 8 days. In the second test, (S)-(+)-1-octen-3-ol and no treatment were rotated between three traps over nine days.

mosquitoes [4] = assay: CO2 fan trap (John W. Hock model 1012) field test with wax lures, Danbury, Conn.; details: wax lure, approx. 0.17 mg/hour release, CO2 approx. 140 ml/minute, average of four three-day cycles
Procedure: The following tests were conducted in Connecticut in September 2004. Mosquito traps model 1012 manufactured by John W. Hock Company in Gainesville, Fla. were used in these experiments. The traps use a stream of CO2 directed in the vicinity of a collection bag, with a fan used to blow mosquitoes into the bag. The light supplied with the trap was turned off. The traps were spaced 65-70 feet apart at the edge of a wetland in Danbury, Conn., at least 25 feet from any buildings. The (R) and (S)-1-octen-3-ol was incorporated into a wax lure of the type manufactured by BioSensory, Inc. and placed near a stream of CO2 which was being released at a rate of approximately 140 ml/minute. The traps were operated from approximately 4:00PM until 9:00AM the next day. Daytime temperatures were 70-75° F. during the trials. Average weight loss from the wax lures during the test was approximately 4 mg/day, or 0.17 mg/hour. Three traps were used, with either (R)-1-Octen-3-ol, (S)-1-Octen-3-ol, or no treatment, rotated among the traps over a three-day cycle. Four complete cycles were performed and the results for each treatment were averaged.
The traps with no attractant were considered as the baseline catch of mosquitoes and the results of the catches with the isomers were compared to this baseline value.

mosquitoes [5] = assay: Mosquito Magnet Liberty trap field test, effect of (S) isomer on (R) isomer, Danbury Conn.; details: 14 days
Procedure: A test to compare the effect of the presence of (S)-(+)-1-octen-3-ol on the efficacy of (R)-(-)-1-octen-3-ol was conducted in Danbury Conn. One lure contained 200 mg of (R)-(-)-1-octen-3-ol diluted in diethyl phthalate to slow release to under 1.7 mg/day. The other lure was identical except that it also contained 200 mg of (S)-(+)-1-octen-3-ol (equivalent to 400 mg of racemic 1-octen-3-ol). The lures were rotated over 14 days between two American Biophysics Mosquito Magnet Liberty traps. The lure containing the 200 mg of (R)-(-)-1-octen-3-ol plus 200 mg (S)-(+)-1-octen-3-ol caught an average of 5.6 mosquitoes/day, while the lure containing 200 mg of (R)-(-)-1-octen-3-ol caught an average of 8.1 mosquitoes daily, representing an increase in efficacy of 45%.

mosquitoes [6] = assay: Mosquito Magnet Pro trap field test with or without ammonia source, Gainesville, Fla.; details: lure with 230 mg (R)-(-)-1-octen-3-ol; traps producing carbon dioxide and heat; twenty-day cycle
Procedure: The test was conducted in Gainesville, Fla. using Mosquito Magnet Pro model mosquito traps manufactured by American Biophysics Corp. that produced carbon dioxide and heat. The traps were provided with either lures having 230 mg (R)-(-)-1-octen-3-ol isomer or lures with 230 mg (R)-(-)-1-octen-3-ol isomer in combination with a source of ammonia provided by a lure containing ammonium bicarbonate in a controlled release polymer matrix, Bactrocera (Dacus) olae, Product code BF L080, provided by AgriSense-BCS Limited, Taffs Mead Road, Treforest Industrial Estate, Pontypridd, CF37 5SU, UK. The traps were rotated between the locations for a twenty-day cycle.

mosquitoes [7] = assay: Mosquito Magnet Liberty trap field test with or without ammonium bicarbonate lure, Redding, Conn.; details: lure with 800 mg (R)-(-)-1-octen-3-ol in waxy carrier; rotated daily for 15 days
Procedure: A test similar to Example 3 was conducted in Redding, Conn., employing Mosquito Magnet Liberty traps rotated daily for 15 days. One trap was provided with a lure containing 470 mg (R)-(-)-1-octen-3-ol isomer in a waxy carrier plus 5 grams of ammonium bicarbonate provided by a lure containing ammonium bicarbonate in a controlled release polymer matrix, provided by […]-BCS Limited ([…]-BCS Limited […] Road, Treforest Industrial Estate, Pontypridd, CF37 5SU UK) and the second trap was provided with a lure containing 800 mg (R)-(-)-1-octen-3-ol isomer in the waxy carrier. The trap with the 800 mg (R)-(-)-1-octen-3-ol isomer attracted an average of 3.8 mosquitoes daily whereas the traps with only 470 mg (R)-(-)-1-octen-3-ol isomer plus the ammonium carbonate attracted average of 6.9 mosquitoes daily, an average increase of about 82%.

Compound: C=CC(O)CCCCC (racemic) [racemic octenol, 1-octen-3-ol, reference compound]
- average mosquitoes caught (mosquitoes [1]; lure with 1660 mg racemic in 1.5 ml diethyl phthalate, approx. 40 mg/day release): 9.4 mosquitoes

Compound: C=C[C@H](O)CCCCCCC [(R)-(-)-1-decen-3-ol]
- total mosquitoes caught (mosquitoes [2]): 89 mosquitoes
- improvement in catch vs (S)-(+)-1-decen-3-ol (mosquitoes [2]; nine days): 89%

Compound: C=C[C@H](O)CCCCC [(R)-(-)-1-octen-3-ol]
- more mosquitoes caught than trap with 50:50 racemic mixture of 1-octen-3-ol (mosquitoes [3]; first test, four traps over 8 days): 18%
- increase in catch vs lure with 1660 mg racemic octenol (mosquitoes [1]; 50 mg (R) isomer): 26%
- average mosquitoes caught (mosquitoes [1]; lure with 50 mg (R) in 1.5 ml diethyl phthalate, 1.5 mg/day or less release): 11.8 mosquitoes
- more mosquitoes captured than the baseline (traps with no attractant) (mosquitoes [4]): 88%
- increase in efficacy vs lure also containing 200 mg (S)-(+)-1-octen-3-ol (mosquitoes [5]; 200 mg (R) isomer): 45%
- average mosquitoes caught (mosquitoes [5]; lure with 200 mg (R)-(-)-1-octen-3-ol in diethyl phthalate, release under 1.7 mg/day): 8.1 mosquitoes daily
- average number of mosquitoes attracted daily (mosquitoes [6]): 14 mosquitoes
- average mosquitoes attracted daily (mosquitoes [7]): 3.8 mosquitoes daily

Compound: C=C[C@@H](O)CCCCCCC [(S)-(+)-1-decen-3-ol, reference compound]
- total mosquitoes caught (mosquitoes [2]): 47 mosquitoes

Compound: C=C[C@@H](O)CCCCC [(S)-(+)-1-octen-3-ol, reference compound]
- fewer mosquitoes caught than the trap with no attractant (mosquitoes [3]; second test, three traps over nine days): 37%
- more mosquitoes captured than the baseline (traps with no attractant) (mosquitoes [4]): 35%
